Results as given in ChEMBL document CHEMBL3885881, “DrugMatrix”.

Species: Rattus norvegicus
Test: DrugMatrix - Regimen: Daily Repeat
Format: toxicity, organism-based, Sprague-Dawley
Design: regimen Daily Repeat, gender Male, age 6-8 weeks
Conditions: in vivo, po, route oral GAVAGE, […]; for ABSOLUTE BASOPHIL / ABSOLUTE EOSINOPHIL / ABSOLUTE LYMPHOCYTE / ABSOLUTE MONOCYTE / ABSOLUTE SEGMENTED NEUTROPHIL / BASOPHIL / EOSINOPHIL / ERYTHROCYTE COUNT / HEMATOCRIT / HEMOGLOBIN / LEUKOCYTE COUNT / LYMPHOCYTE / MEAN CORPUSCULAR HEMOGLOBIN / MEAN CORPUSCULAR HEMOGLOBIN CONCENTRATION / MEAN CORPUSCULAR VOLUME / MONOCYTE / NEUTROPHIL / NUCLEATED RED BLOOD CELLS / PLATELET COUNT: tissue Blood; for ALANINE AMINOTRANSFERASE / ALBUMIN / ALKALINE PHOSPHATASE / ASPARTATE AMINOTRANSFERASE / BLOOD UREA NITROGEN / CARBON DIOXIDE / CHLORIDE / CHOLESTEROL / CREATINE PHOSPHOKINASE / CREATININE / GLUCOSE / LACTATE DEHYDROGENASE / LIPASE / PHOSPHORUS / POTASSIUM / SODIUM / TOTAL BILIRUBIN / TOTAL PROTEIN / URIC ACID: tissue Plasma
[1] = 47 mg/kg, 120 h, dose level Low, time 5 day
[2] = 250 mg/kg, 72 h, dose level High, time 3 day
[3] = 250 mg/kg, 120 h, dose level High, time 5 day

CC(=O)Nc1nnc(S(N)(=O)=O)s1 [ACETAZOLAMIDE]
ABSOLUTE BASOPHIL [1]: 0 CELLS/uL | ABSOLUTE EOSINOPHIL [1]: 0 CELLS/uL | ABSOLUTE LYMPHOCYTE [1]: 10200 CELLS/uL | ABSOLUTE MONOCYTE [1]: 261.33 CELLS/uL | ABSOLUTE SEGMENTED NEUTROPHIL [1]: 672 CELLS/uL | BASOPHIL [1]: 0% | EOSINOPHIL [1]: 0% | ERYTHROCYTE COUNT [1]: 5.43 x10E6/uL | HEMATOCRIT [1]: 33.83% | HEMOGLOBIN [1]: 13.43 G/DL | LEUKOCYTE COUNT [1]: 11.13 x10E3/uL | LYMPHOCYTE [1]: 91.67% | MEAN CORPUSCULAR HEMOGLOBIN [1]: 24.73 pg | MEAN CORPUSCULAR HEMOGLOBIN CONCENTRATION [1]: 39.7 G/DL | MEAN CORPUSCULAR VOLUME [1]: 62.3 fL | MONOCYTE [1]: 2.33% | NEUTROPHIL [1]: 6% | NUCLEATED RED BLOOD CELLS [1]: 0.33 /100WBC | PLATELET COUNT [1]: 1186.33 x10E3/uL | ALANINE AMINOTRANSFERASE [1]: 60.33 u/L | ALBUMIN [1]: 4.07 G/DL | ALKALINE PHOSPHATASE [1]: 448.67 u/L | ASPARTATE AMINOTRANSFERASE [1]: 74.67 u/L | BLOOD UREA NITROGEN [1]: 14 mg/dL | CARBON DIOXIDE [1]: 27.67 mmol/L | CHLORIDE [1]: 104 MEQ/L | CHOLESTEROL [1]: 61.33 mg/dL | CREATINE PHOSPHOKINASE [1]: 271.67 u/L | CREATININE [1]: 0.14 mg/dL | GLUCOSE [1]: 155 mg/dL | LACTATE DEHYDROGENASE [1]: 142 u/L | LIPASE [1]: 10.33 u/L | PHOSPHORUS [1]: 9.17 mg/dL | POTASSIUM [1]: 5.17 MEQ/L | SODIUM [1]: 145.83 MEQ/L | TOTAL BILIRUBIN [1]: 0.23 mg/dL | TOTAL PROTEIN [1]: 6.07 G/DL | URIC ACID [1]: 0.33 mg/dL | ABSOLUTE BASOPHIL [2]: 0 CELLS/uL | ABSOLUTE EOSINOPHIL [2]: 0 CELLS/uL | ABSOLUTE LYMPHOCYTE [2]: 8200.33 CELLS/uL | ABSOLUTE MONOCYTE [2]: 117.33 CELLS/uL | ABSOLUTE SEGMENTED NEUTROPHIL [2]: 382.33 CELLS/uL | BASOPHIL [2]: 0% | EOSINOPHIL [2]: 0% | ERYTHROCYTE COUNT [2]: 5.26 x10E6/uL | HEMATOCRIT [2]: 32.4% | HEMOGLOBIN [2]: 12.8 G/DL | LEUKOCYTE COUNT [2]: 8.7 x10E3/uL | LYMPHOCYTE [2]: 94.33% | MEAN CORPUSCULAR HEMOGLOBIN [2]: 24.33 pg | MEAN CORPUSCULAR HEMOGLOBIN CONCENTRATION [2]: 39.5 G/DL | MEAN CORPUSCULAR VOLUME [2]: 61.57 fL | MONOCYTE [2]: 1.33% | NEUTROPHIL [2]: 4.33% | NUCLEATED RED BLOOD CELLS [2]: 0 /100WBC | PLATELET COUNT [2]: 1163 x10E3/uL | ALANINE AMINOTRANSFERASE [2]: 77 u/L | ALBUMIN [2]: 3.83 G/DL | ALKALINE PHOSPHATASE [2]: 352.67 u/L | ASPARTATE AMINOTRANSFERASE [2]: 83.67 u/L | BLOOD UREA NITROGEN [2]: 11.67 mg/dL | CARBON DIOXIDE [2]: 29.67 mmol/L | CHLORIDE [2]: 101.67 MEQ/L | CHOLESTEROL [2]: 73.33 mg/dL | CREATINE PHOSPHOKINASE [2]: 296.33 u/L | CREATININE [2]: 0.37 mg/dL | GLUCOSE [2]: 157 mg/dL | LACTATE DEHYDROGENASE [2]: 154 u/L | LIPASE [2]: 11.33 u/L | PHOSPHORUS [2]: 9.67 mg/dL | POTASSIUM [2]: 4.85 MEQ/L | SODIUM [2]: 144.27 MEQ/L | TOTAL BILIRUBIN [2]: 0.2 mg/dL | TOTAL PROTEIN [2]: 5.67 G/DL | URIC ACID [2]: 0.33 mg/dL | ABSOLUTE BASOPHIL [3]: 0 CELLS/uL | ABSOLUTE EOSINOPHIL [3]: 64 CELLS/uL | ABSOLUTE LYMPHOCYTE [3]: 8180.67 CELLS/uL | ABSOLUTE MONOCYTE [3]: 154.33 CELLS/uL | ABSOLUTE SEGMENTED NEUTROPHIL [3]: 767.67 CELLS/uL | BASOPHIL [3]: 0% | EOSINOPHIL [3]: 0.67% | ERYTHROCYTE COUNT [3]: 5.67 x10E6/uL | HEMATOCRIT [3]: 35.23% | HEMOGLOBIN [3]: 13.9 G/DL | LEUKOCYTE COUNT [3]: 9.17 x10E3/uL | LYMPHOCYTE [3]: 89.33% | MEAN CORPUSCULAR HEMOGLOBIN [3]: 24.53 pg | MEAN CORPUSCULAR HEMOGLOBIN CONCENTRATION [3]: 39.47 G/DL | MEAN CORPUSCULAR VOLUME [3]: 62.1 fL | MONOCYTE [3]: 1.67% | NEUTROPHIL [3]: 8.33% | NUCLEATED RED BLOOD CELLS [3]: 0 /100WBC | PLATELET COUNT [3]: 1233.67 x10E3/uL | ALANINE AMINOTRANSFERASE [3]: 59 u/L | ALBUMIN [3]: 4.03 G/DL | ALKALINE PHOSPHATASE [3]: 354.67 u/L | ASPARTATE AMINOTRANSFERASE [3]: 71 u/L | BLOOD UREA NITROGEN [3]: 15 mg/dL | CARBON DIOXIDE [3]: 23.33 mmol/L | CHLORIDE [3]: 109.33 MEQ/L | CHOLESTEROL [3]: 66 mg/dL | CREATINE PHOSPHOKINASE [3]: 397 u/L | CREATININE [3]: 0.18 mg/dL | GLUCOSE [3]: 141.67 mg/dL | LACTATE DEHYDROGENASE [3]: 111.33 u/L | LIPASE [3]: 10.33 u/L | PHOSPHORUS [3]: 8.57 mg/dL | POTASSIUM [3]: 5.2 MEQ/L | SODIUM [3]: 146 MEQ/L | TOTAL BILIRUBIN [3]: 0.17 mg/dL | TOTAL PROTEIN [3]: 6.1 G/DL | URIC ACID [3]: 0.53 mg/dL
